This is an account of results in patent US10383849B2, “Use of an acetylcholinesterase inhibitor and idalopirdine for reducing falls in Parkinson's disease patients” (H. Lundbeck A/S, priority 2016, dated 2019).

The test system of assay [1] is DL rats (dual striatal-dopaminergic, cortical cholinergic system lesions). Put plainly: MCMCT rotating rod with active distractor (water retrieval). It is filed as in vivo, Sprague Dawley rats. To be noted: for number of animals that retrieved water in at least one trial: of 14 DL rats per group, licking water for at least 1 s, DL/VEH 9, SH/VEH 13. How it is done:
(§1) Of the 70 rats, 56 (28 females and 28 males) received dual striatal-dopaminergic, corticalcholinergic system lesions (DL) and were randomly assigned to 4 treatment conditions after surgeries (n=14/group, 7/sex). 14 rats (7/sex) received sham lesions. 6-OHDA was delivered bilaterally to dopamine terminals in the dorsal striatum (Sigma-Aldrich; 6.0 μg/2 μL/infusion, bolus; dissolved in 0.9% NaCl with 0.1% ascorbic acid; two infusion sites per hemisphere: AP+1.2 and +0.2 mm; ML ±2.5 and ±3.0 mm relative to bregma; DV −4.8 and −5.0 mm from skull). Desipramine hydrochloride (10 mg/kg; i.p.; Sigma-Aldrich) was administered to rats receiving 6-OHDA infusions 30 min prior to surgeries for protection of noradrenergic neurons^4. Basal forebrain cholinergic neurons situated in the nucleus basalis and substantia innominate were targeted with immunotoxin 192 IgG-saporin (Advanced Targeting Systems) in aCSF infused bilaterally (120 ng/μL; 0.5 μL/hemisphere; AP −0.8; ML ±2.9; DV −7.8). Sham rats received equal volumes of 0.9% NaCl with 0.1% ascorbic acid (striatum) and aCSF (basal forebrain) without neurotoxins.
Two distractors were presented during traversals. First, a passive doorframe distractor, comprised of a 46.0×39.4 cm surface with a door-frame shape cutout of 20 cm×10 cm made of foam core, was incorporated into the MCMCT test sequence. The distractor was placed at the midway point along the beam (100 cm mark) with side jambs 3.5 cm from the rod surface on both sides and the top border of the doorframe cutout 11 cm above the flat rod surface. […] Second, animals were tested with an active distractor task in which a water reward (3 drops of water; ˜150 μL) was presented on a platform (4.9 cm diameter) during traversals. The platform was also placed at the 100 cm mark, with 2-3 cm separating the rod and the platform.
Rats were first acclimated to the task in 4 shaping trials (test days 8 and 9). In these trials rats were placed directly on the stationary (non-rotating) rod adjacent to the platform (approximately midway across the beam) and allowed to drink the water from the platform. After shaping trials, rats underwent 4 test trials in which the rats performed unassisted traversals of the rotating rod (alternating directions) with presentations of water rewards. In two other test days (10 and 12), rats performed 10 test runs per day. In addition to falls, the number of water rewards earned, defined as licking/drinking water from the platform for ≥1 sec, were counted. All trials were recorded using a system of 4 bullet cameras (KT&C; model KPCS190SH Black/White Bullet Camera with ⅓″ SONY Super HAD CCD) with rotatable bases that were fastened to the outer support frame of the outer side of the apparatus by hand clamps. Performance measures were analyzed by video playback by experimenters blind to the lesion status and treatment regimen of the rats
Donepezil and idalopirdine were dissolved in 5% 2-hydroxypropyl-beta-cyclodextrin vehicle solution. Rats were divided into the following drug administration groups (14 per group, 7 per sex): sham-lesioned and administered vehicle (SH/VEH), DL and vehicle (DL/VEH), DL and donepezil (DL/DON), DL and idalopirdine (DL/IDL), and DL and idalopirdine plus donepezil (DL/DON+IDL). Solutions were prepared the night before administration and were replaced every 6 days. DON and IDL were dissolved in the same solution for the combination treatment. […]

Assay [2] has the same test system. Nature of the assay: MCMCT rotating rod with passive doorframe distractor (test days 6, 7, 11). Conditions: compared with SH/VEH rats. Type of assay: in vivo, Sprague Dawley rats. How it is done: Of the 70 rats, 56 (28 females and 28 males) received dual striatal-dopaminergic, corticalcholinergic system lesions (DL) and were randomly assigned to 4 treatment conditions after surgeries (n=14/group, 7/sex). 14 rats (7/sex) received sham lesions. 6-OHDA was delivered bilaterally to dopamine terminals in the dorsal striatum (Sigma-Aldrich; 6.0 μg/2 μL/infusion, bolus; dissolved in 0.9% NaCl with 0.1% ascorbic acid; two infusion sites per hemisphere: AP+1.2 and +0.2 mm; ML ±2.5 and ±3.0 mm relative to bregma; DV −4.8 and −5.0 mm from skull). […]
Complex movement performance measures including fall propensity were assessed using the MCMCT (for details and an illustration see Kucinski, A. et al (2013) Modelling fall propensity in Parkinson's disease: Deficits in the attentional control of complex movements in rats with cortical-cholinergic and striatal-dopaminergic deafferentation. J Neurosci, 33, 16522-16539). […]
Falls, slips, and traversal time were assessed as described in Kucinski, A. et al (2013) Modelling fall propensity in Parkinson's disease: Deficits in the attentional control of complex movements in rats with cortical-cholinergic and striatal-dopaminergic deafferentation. […] A slip was scored when any of the rats' paws lost contact with the surface of the rod and extended below the lower horizontal border of the rod. […]

For assay [3] the test system is unchanged. Put plainly: MCMCT rod traversal, stationary and rotating rod (test days 2-5), Example 1. Conditions: for number of slips: rod days 2-5, DL/VEH 2.04+0.16, SH/VEH 1.60+0.11; for traversal speed (time per rod traversal): rod days 2-5, DL/VEH 4.62±0.25 s, SH/VEH 3.96±0.19 s, mean±SEM; for frequency of falls during rod traversal: s.c. 30 min before MCMCT, across all rod conditions days 2-5, compared with DL/VEH. It is filed as in vivo, Sprague Dawley rats. Here is the method: Adult male and female Sprague Dawley rats (Harlan; N=70; 35 males and 35 females) between 3 and 6 months of age were individually housed in opaque single standard cages (27.70 cm×20.30 cm) in a temperature- and humidity-controlled environment (23° C., 45%). […] The animals were maintained under a 12:12 hour light/dark schedule (lights on at 8:00 AM). Food (Rodent Chow; Harlan Teklad) was available ad libitum. Water access was gradually restricted over a 7-day period (12, 8, 5, 3, 1, 0.5, 0.25 hrs of water access per day) in the week before pre- and postsurgery behavioral testing. During testing, water was provided as rewards for correct responses during SAT performance and following beam traversals on the MCMCT (see below). Rats were also provided water ad libitum for 15 min following SAT performance each day.
Following pre-surgery training, animals underwent stereotaxic lesion surgeries followed by 4 weeks of recovery. During the final week of recovery animals were gradually water restricted. Drug effects were then assessed with 12 consecutive days of SAT and MCMCT sessions (see Table 1 for the battery of MCMCT test conditions):
Drug or vehicle injections were administered 30 minutes prior to SAT performance (˜9:30 injections, SAT testing 10:00-10:45 a.m.) and in the afternoon before MCMCT testing (˜3:30-6:00 p.m.). For the MCMCT runs, rats were injected individually so that trials began exactly 30 minutes after injection for each animal.
as §1
Complex movement performance measures including fall propensity were assessed using the MCMCT (for details and an illustration see Kucinski, A. et al (2013) Modelling fall propensity in Parkinson's disease: Deficits in the attentional control of complex movements in rats with cortical-cholinergic and striatal-dopaminergic deafferentation. J Neurosci, 33, 16522-16539). This beam traversal apparatus was designed to tax the ability of rats to perform attention demanding movements and correct for stepping errors while crossing a narrow square rod surface (2.54 cm2). The ends of the beam (2.0 m length) were held in sockets that allowed the rod to be rotated by a gear motor (10 RPM) coupled to one end of the beam element. Traversal of the rod, particularly when rotating, reliably generated falls and other movement impairments in rats with dual lesions of striatal dopaminergic and cortical cholinergic inputs. A flat plank surface (13.3 cm wide) was also used to assess basic motor capacity and for habituation to the apparatus. Two identical platforms (23.0×31.5 cm area) situated at the opposite ends of the beam were surrounded by retractable walls (27.0 cm height) to form end-box structures. The walls are raised and lowered manually and secured in position by a friction clamp which rides in a vertical slot in the support structure under the platform. […]

Assay [4] has as its system patients with AD. Conditions: compared to donepezil treated patients; cited from earlier work.

As to `COc1cc2c(cc1OC)C(=O)C(CC1CCN(Cc3ccccc3)CC1)C2` (centres unmarked) [DON, donepezil], the “rod traversal performance in the presence of the active distractor” value in assay [1] (DL rats) is listed as “did not significantly improve the performance”. The water retrieval count entry in assay [1] (DL rats, multiple comparisons (FIG. 3B)) is “not significantly lower than DL/VEH”. Moreover, the “number of animals that retrieved water in at least one trial” value in assay [1] was found to be 10. The “doorframe-associated falls (fall rates in the presence of the doorframe)” value in assay [2] is “experienced more doorframe-associated falls than SH/VEH rats”. In addition, in assay [3], the number of slips is given as 2.04+0.14, the “traversal speed (time per rod traversal)” value was 4.48 ± 0.36 s and the “frequency of falls during rod traversal” value is “tended to be lower than in DL/VEH rats but the effect did not reach significance”.
For the compound `Fc1ccc2c(CCNCc3cccc(OCC(F)(F)C(F)F)c3)c[nH]c2c1` [IDL, N-(2-(6-fluoro-1H-indol-3-yl)ethyl)-3-(2,2,3,3-tetrafluoropropoxy) benzylamine], in assay [1] (DL rats), the “rod traversal performance in the presence of the active distractor” value was “did not significantly improve the performance”. The “number of animals that retrieved water in at least one trial” value in assay [1] came out at 11. Moreover, the “secondary endpoints including measures of global impression and daily living activities” value in assay [4] is “positive results”. Also, the “doorframe-associated falls (fall rates in the presence of the doorframe)” value in assay [2] was “experienced more doorframe-associated falls than SH/VEH rats”. Also, in assay [3], the number of slips was 2.51+0.38, the “traversal speed (time per rod traversal)” value came to 5.48 ± 0.45 s and the “frequency of falls during rod traversal” value was “fell as frequently as untreated DL rats”.
